Test results taken from US8722736B2, “Multi-dose concentrate esmolol with benzyl alcohol” (Baxter International Inc., priority 2007, dated 2014).

Experiment: pH dependence of esmolol degradation
Type: physicochemical
Description: The concentrate of present invention can also include a pharmaceutically acceptable buffer to aid in maintaining the pH in a range of from about 3.5 to about 7.0. Preferably, the pH is maintained between about 4.5 and about 5.5, more preferably between 4.9 and 5.1. […] Suitable buffers are those buffers that provide sufficient buffering capacity at the desired pH range and are pharmaceutically acceptable for injection into a patient. Examples of buffers useful in the present invention include, but are not limited to, acetate, glutamate, citrate, tartrate, benzoate, lactate, gluconate, phosphate and glycine and conjugate acids thereof. The concentration of the buffer can be from about 0.005 to about 2 M. In a preferred embodiment, the buffering agent comprises a combination of sodium acetate and glacial acetic acid. A preferred combination of buffers can include sodium acetate at from about 0.005 to about 0.3 M and glacial acetic acid at from about 0.05 to about 0.3 M.

- pH at which esmolol is most stable: about 5.0
Structure (SMILES): COC(=O)CCc1ccc(OCC(O)CNC(C)C)cc1.Cl (stereo not shown) [esmolol, methyl3-[4-[2-hydroxy-3-(isopropylamino)propoxy]phenyl]propionate hydrochloride]
